Legend:
Test in all cases: relative viability (nuclei count vs DMSO), 5 days (fraction); higher = more cells survive
Salubrinal + Trametinib = compound: O=C(/C=C/c1ccccc1)NC(NC(=S)Nc1cccc2cccnc12)C(Cl)(Cl)Cl [Salubrinal] + CC(=O)Nc1cccc(-n2c(=O)n(C3CC3)c(=O)c3c(Nc4ccc(I)cc4F)n(C)c(=O)c(C)c32)c1 [Trametinib] (partner 0.02 µM)
In short: (§1)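 One day after seeding in 1536-well plates, lung cancer cell lines were dosed by pin tool. Dosing was either single-drug or a fixed anchor-drug dose plus five library-drug doses (not always all listed) in √10 steps. After 5 days, nuclei were stained in one fix-and-stain step and counted on 4× images, and relative viability is the nuclei count of treated wells over that of vehicle wells, given as the median of duplicate plates.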

Salubrinal + Pictilisib = compound: O=C(/C=C/c1ccccc1)NC(NC(=S)Nc1cccc2cccnc12)C(Cl)(Cl)Cl [Salubrinal] + CS(=O)(=O)N1CCN(Cc2cc3nc(-c4cccc5[nH]ncc45)nc(N4CCOCC4)c3s2)CC1 [Pictilisib] (partner 1 µM)
In short: as §1

[1] = compound: Cc1ccc2nc(NCCN)c3ncc(C)n3c2c1 + Cc1nc(Nc2ncc(C(=O)Nc3c(C)cccc3Cl)s2)cc(N2CCN(CCO)CC2)n1 [Dasatinib] (partner 0.075 µM)
In short: as §1

Salubrinal + Foretinib = compound: O=C(/C=C/c1ccccc1)NC(NC(=S)Nc1cccc2cccnc12)C(Cl)(Cl)Cl [Salubrinal] + COc1cc2c(Oc3ccc(NC(=O)C4(C(=O)Nc5ccc(F)cc5)CC4)cc3F)ccnc2cc1OCCCN1CCOCC1 [Foretinib] (partner 0.25 µM)
In short: as §1

| Cell Line | relative viability (Salubrinal + Trametinib; first compound 0.08 µM) | relative viability (Salubrinal + Trametinib; first compound 0.253 µM) | relative viability (Salubrinal + Trametinib; first compound 0.8 µM) | relative viability (Salubrinal + Trametinib; first compound 2.53 µM) | relative viability (Salubrinal + Trametinib; first compound 8 µM) | relative viability (Salubrinal + Pictilisib; first compound 0.08 µM) | relative viability (Salubrinal + Pictilisib; first compound 0.253 µM) | relative viability (Salubrinal + Pictilisib; first compound 0.8 µM) | relative viability (Salubrinal + Pictilisib; first compound 2.53 µM) | relative viability (Salubrinal + Pictilisib; first compound 8 µM) | relative viability ([1]; first compound 0.04 µM) | relative viability ([1]; first compound 0.1265 µM) | relative viability ([1]; first compound 0.4 µM) | relative viability ([1]; first compound 1.265 µM) | relative viability ([1]; first compound 4 µM) | relative viability (Salubrinal + Foretinib; first compound 0.08 µM) | relative viability (Salubrinal + Foretinib; first compound 0.253 µM) | relative viability (Salubrinal + Foretinib; first compound 0.8 µM) | relative viability (Salubrinal + Foretinib; first compound 2.53 µM) | relative viability (Salubrinal + Foretinib; first compound 8 µM) |
| --- | --- | --- | --- | --- | --- | --- | --- | --- | --- | --- | --- | --- | --- | --- | --- | --- | --- | --- | --- | --- |
| HCC-44 | 1.19 | 1.11 | 1.16 | 1.09 | 1.04 | 0.592 | 0.591 | 0.767 | 0.649 | 0.493 | – | – | – | – | – | – | – | – | – | – |
| HCC-827 | 0.586 | 0.544 | 0.515 | 0.5 | 0.548 | 0.959 | 1.02 | 1.06 | 0.994 | 0.898 | 0.33 | 0.239 | 0.291 | 0.266 | 0.227 | 1.02 | 1.02 | 1.07 | 0.956 | 1.09 |
| NCI-H2342 | 0.966 | 0.806 | 0.758 | 0.775 | 0.88 | – | – | – | – | – | 0.363 | 0.363 | 0.328 | 0.284 | 0.313 | 1.1 | 1.04 | 1.1 | 1.09 | 0.927 |
| NCI-H2347 | 0.279 | 0.258 | 0.395 | 0.262 | 0.294 | 0.805 | 0.517 | 0.905 | 0.678 | 0.434 | 0.32 | 0.333 | 0.355 | 0.266 | 0.317 | 0.906 | 1.15 | 1.4 | 0.797 | 1.08 |
| PC-14 | 0.695 | 0.753 | 0.736 | 0.588 | 0.629 | 0.792 | 0.597 | 0.668 | 0.702 | 0.626 | 0.285 | 0.276 | 0.299 | 0.206 | 0.0944 | 1.02 | 0.873 | 1.1 | 1 | 0.931 |
| NCI-H1651 | 0.848 | 0.833 | 0.898 | 0.829 | 0.929 | 0.822 | 0.486 | 0.667 | – | 0.423 | 0.472 | 0.441 | 0.422 | 0.395 | 0.392 | 1.01 | 0.759 | 1.02 | 0.748 | 0.772 |
| HARA | 0.715 | 0.873 | 0.631 | 0.621 | 0.702 | 0.524 | 0.328 | 0.558 | 0.328 | 0.375 | 0.295 | 0.282 | 0.313 | 0.243 | 0.255 | 0.836 | 0.628 | 0.917 | 1.08 | 0.69 |
| NCI-H1650 | 0.691 | 0.5 | 0.592 | 0.517 | 0.54 | 0.536 | 0.491 | 0.635 | 0.581 | 0.536 | 0.33 | 0.312 | 0.273 | 0.282 | 0.226 | 1.26 | 1.02 | 1.08 | 1.14 | 0.894 |
| NCI-H1395 | 1.15 | 1.15 | 1.18 | 0.972 | 1.02 | 0.621 | 0.651 | 0.609 | 0.603 | 0.504 | 0.48 | 0.425 | 0.374 | 0.37 | 0.407 | 0.993 | 1.1 | 0.938 | 0.92 | 1.08 |
| LU99A | 0.589 | 0.515 | 0.614 | 0.548 | 0.56 | 0.29 | 0.35 | 0.356 | 0.318 | 0.362 | 0.58 | 0.605 | 0.622 | 0.54 | 0.544 | 0.92 | 0.802 | 0.841 | 0.703 | 0.789 |
| NCI-H1355 | 0.445 | 0.452 | 0.414 | 0.433 | 0.315 | 0.366 | 0.433 | 0.45 | 0.426 | 0.425 | 0.712 | 0.728 | 0.678 | 0.667 | 0.638 | 1.08 | 1.01 | 0.977 | 0.951 | 0.883 |
| HCC-78 | 0.869 | 0.692 | 0.652 | 0.791 | 0.686 | 0.195 | 0.0891 | 0.312 | 0.232 | 0.229 | 0.425 | 0.496 | 0.364 | 0.354 | 0.303 | 0.597 | 0.561 | 0.584 | 0.649 | 0.551 |
| NCI-H1563 | – | – | – | – | – | 0.665 | 0.586 | 0.639 | 0.623 | 0.591 | 0.459 | 0.488 | 0.539 | 0.433 | 0.454 | 0.952 | 0.919 | 0.903 | 0.929 | 0.866 |
| HCC-15 | 0.444 | 0.36 | 0.379 | 0.378 | 0.381 | 0.77 | 0.643 | 0.837 | 0.728 | 0.759 | 0.703 | 0.666 | 0.646 | 0.575 | 0.391 | 1.21 | 0.999 | 1.07 | 1.08 | 1.06 |
| EKVX | 0.332 | 0.47 | 0.565 | 0.303 | 0.358 | 0.508 | 0.494 | 0.525 | 0.461 | 0.482 | 0.523 | 0.548 | 0.466 | 0.37 | 0.46 | 0.755 | 0.776 | 0.82 | 0.714 | 0.792 |
| NCI-H2087 | 0.201 | 0.191 | 0.181 | 0.186 | 0.207 | 0.917 | 0.892 | 1.02 | 0.853 | 0.963 | 0.893 | 0.85 | 0.767 | 0.87 | 0.791 | 1.12 | 0.881 | 1.13 | 1.36 | 1.02 |
| LK-2 | 0.918 | 0.812 | 0.819 | 0.722 | 0.744 | 0.59 | 0.541 | 0.666 | 0.512 | 0.575 | 0.251 | 0.223 | 0.27 | 0.229 | 0.268 | 0.983 | 1.18 | 1.6 | 1.24 | 1.09 |

Reference: the supplement of paper PMC10307832
